Publication PMC9213526, “Glycoside hydrolase from the GH76 family indicates that marine Salegentibacter sp. Hel_I_6 consumes alpha-mannan from fungi” (The ISME Journal, 2022)

Experiments:
ShGH76 [1] = biological target: T1, ShGH76 (Salegentibacter sp. Hel_I_6, UniProt A0ACD6BAU6, D116A/D117A, form not given); assay: X-ray crystallography of the complex, […] Å; assay type: binding; settings: inactive double mutant ShGH76^Ala; co-crystallised in 1.6 M tri-sodium citrate; active site
T1 construct: gene GH76A; synthetic gene in pET28a(+) (NheI/XhoI), N-terminal 6xHis tag, E. coli BL21(DE3); modelled residues Asp54-Glu391

ShGH76 [2] = biological target: T2, ShGH76 (Salegentibacter sp. Hel_I_6, UniProt A0ACD6BAU6); assay: HPAEC-PAD product analysis; assay type: biochemical
T2 construct: gene GH76A; synthetic gene in pET28a(+) (NheI/XhoI), N-terminal 6xHis tag, E. coli BL21(DE3); modelled residues Asp54-Glu391

ShGH76 [3] = biological target: T3, ShGH76 (Salegentibacter sp. Hel_I_6, UniProt A0ACD6BAU6, D116N/D117N, form not given); assay: X-ray crystallography of the complex, […] Å; assay type: binding; settings: inactive double mutant ShGH76^Asn; co-crystallised at pH 4.6 with 140 mM calcium chloride; active site
T3 construct: gene GH76A; synthetic gene in pET28a(+) (NheI/XhoI), N-terminal 6xHis tag, E. coli BL21(DE3); modelled residues Asp54-Glu391

SMILES: OC[C@H]1O[C@H](OC[C@H]2O[C@H](OC[C@H]3O[C@H](OC[C@H]4OC(O)[C@@H](O)[C@@H](O)[C@@H]4O)[C@@H](O)[C@@H](O)[C@@H]3O)[C@@H](O)[C@@H](O)[C@@H]2O)[C@@H](O)[C@@H](O)[C@@H]1O (stereo partly drawn) [Man4, α-1,6-mannotetrose]
- X-ray crystallography of the complex, 1.90 Å (ShGH76 [1]): crystal structures of ShGH76^WT (apo-form), ShGH76^Asn (with Man3) and ShGH76^Ala (with Man4)

SMILES: OC[C@H]1O[C@H](OC[C@H]2O[C@H](OC[C@H]3O[C@H](OC[C@H]4O[C@H](OC[C@H]5O[C@H](OC[C@H]6O[C@H](OC[C@H]7OC(O)[C@@H](O)[C@@H](O)[C@@H]7O)[C@@H](O)[C@@H](O)[C@@H]6O)[C@@H](O)[C@@H](O)[C@@H]5O)[C@@H](O)[C@@H](O)[C@@H]4O)[C@@H](O)[C@@H](O)[C@@H]3O)[C@@H](O)[C@@H](O)[C@@H]2O)[C@@H](O)[C@@H](O)[C@@H]1O (stereo partly drawn) [Man7, mannoheptose]
- HPAEC-PAD product analysis (ShGH76 [2]): As is exemplarily shown for Man7 (Fig. 5D), ShGH76^WT hydrolyzed α-1,6-mannooligosaccharides almost completely

SMILES: OC[C@H]1O[C@H](OC[C@H]2O[C@H](OC[C@H]3OC(O)[C@@H](O)[C@@H](O)[C@@H]3O)[C@@H](O)[C@@H](O)[C@@H]2O)[C@@H](O)[C@@H](O)[C@@H]1O (stereo partly drawn) [Man3, α-1,6-mannotriose]
- X-ray crystallography of the complex, 1.47 Å (ShGH76 [3]): crystal structures of ShGH76^WT (apo-form), ShGH76^Asn (with Man3) and ShGH76^Ala (with Man4)
